Experimental data from the NIST ThermoML archive (doi:10.1021/je060146z).
± gives the expanded uncertainty stated by the source.

Conditions: Crystal

Compared with CCCCCCCCCC(=O)O [decanoic acid], CCCCCCCCCCCC(=O)O [dodecanoic acid] is higher in Normal melting temperature: 31.27 ± 1.2 °C for the first, 43.79 ± 1.2 °C for the second.

Going from CCCCCCCCCCCCCCCC(=O)O [hexadecanoic acid] to CCCCCCCCCCCCCCCCCC(=O)O [octadecanoic acid], the Normal melting temperature rises from 62.29 ± 1.2 °C to 68.76 ± 1.2 °C.

CCCCCCCCCCCCCC(=O)O [tetradecanoic acid] showed a Normal melting temperature of 54.33 ± 1.2 °C.
